The assay deals with T1, Ba/F3-FL-TYK2-P760L cells (Homo sapiens, UniProt P29597, P760L, cells depend on it).
T1 construct: BaF3-FL-T2P760L (nM)
T1 sequence (P29597 whole entry P760L): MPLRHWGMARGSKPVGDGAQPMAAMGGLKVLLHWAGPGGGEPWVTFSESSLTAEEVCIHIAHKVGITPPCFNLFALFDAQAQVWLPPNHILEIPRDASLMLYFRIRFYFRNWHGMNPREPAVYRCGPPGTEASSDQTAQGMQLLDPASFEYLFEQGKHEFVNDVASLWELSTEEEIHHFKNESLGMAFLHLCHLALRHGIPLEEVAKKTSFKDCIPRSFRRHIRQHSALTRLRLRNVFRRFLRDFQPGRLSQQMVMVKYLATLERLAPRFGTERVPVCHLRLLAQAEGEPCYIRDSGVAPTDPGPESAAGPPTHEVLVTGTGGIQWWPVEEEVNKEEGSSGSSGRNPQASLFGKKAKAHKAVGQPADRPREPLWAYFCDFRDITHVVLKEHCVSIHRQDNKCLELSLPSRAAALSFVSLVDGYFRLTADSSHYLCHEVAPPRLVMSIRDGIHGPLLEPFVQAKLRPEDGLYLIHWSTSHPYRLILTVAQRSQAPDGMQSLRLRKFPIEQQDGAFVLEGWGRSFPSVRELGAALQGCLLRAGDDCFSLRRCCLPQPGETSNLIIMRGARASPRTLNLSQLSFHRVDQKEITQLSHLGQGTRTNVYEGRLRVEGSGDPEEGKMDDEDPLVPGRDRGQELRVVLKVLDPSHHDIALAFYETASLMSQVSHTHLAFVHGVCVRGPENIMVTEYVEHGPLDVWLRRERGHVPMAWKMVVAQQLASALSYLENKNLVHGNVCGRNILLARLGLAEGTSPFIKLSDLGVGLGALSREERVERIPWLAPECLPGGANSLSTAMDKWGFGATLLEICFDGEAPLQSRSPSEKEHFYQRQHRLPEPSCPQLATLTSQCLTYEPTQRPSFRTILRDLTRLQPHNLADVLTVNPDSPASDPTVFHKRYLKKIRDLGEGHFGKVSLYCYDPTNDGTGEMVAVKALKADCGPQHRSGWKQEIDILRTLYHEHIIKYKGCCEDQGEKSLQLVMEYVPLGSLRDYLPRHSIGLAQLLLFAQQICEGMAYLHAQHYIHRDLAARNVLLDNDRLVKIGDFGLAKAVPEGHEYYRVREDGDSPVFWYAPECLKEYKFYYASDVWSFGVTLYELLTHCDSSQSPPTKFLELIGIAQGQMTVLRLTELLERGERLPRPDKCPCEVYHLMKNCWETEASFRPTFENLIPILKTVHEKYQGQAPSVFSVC
As to the kind of experiment: Anti-proliferative assay, Ba/F3-FL-TYK2-P760L cells (Cell-Titer Glo). It is filed as cell-based. The settings on record: 72 h, read-out: BaF3-FL-T2P760L IC50. In a few lines:
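Ba/F3 cells made IL-3-independent by TEL-fused or full-length mutant JAK-family kinases, seeded at 2000/well and dosed after 24 h with 9 three-fold dilutions topping at 20 μM. Viability after 72 h at 37 °C, 5% CO2 by Cell-Titer Glo ATP luminescence.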
For `[2H]C([2H])([2H])NC(=O)c1cnc(NC(=O)C2CC2)cc1Nc1ccc2nnn(CC)c2c1OC` [Example 164, 6-(Cyclopropanecarbonylamino)-4-[(3-ethyl-4-methoxy-benzotriazol-5-yl)amino]-N-(trideuteriomethyl)pyridine-3-carboxamide], the GI50 was determined as 349 nM.

Regarding `[2H]C([2H])([2H])NC(=O)c1cnc(Nc2ccc(F)cn2)cc1Nc1cn(C)c2c(Cl)cn(C([2H])([2H])[2H])c(=O)c12` [Example 170, 4-((7-Chloro-1-methyl-5-(methyl-d3)-4-oxo-4,5-dihydro-1H-pyrrolo[3,2-c]pyridin-3-yl)amino)-6-((5-fluoropyridin-2-yl)amino)-N-(methyl-d3)nicotinamide], the GI50 is 27.6 nM.

Consider `[2H]C([2H])([2H])NC(=O)c1cnc(NC(=O)C2CC2)cc1Nc1csc2c(Cl)cn(C(C)C)c(=O)c12` [Example 175, 4-((7-Chloro-5-isopropyl-4-oxo-4,5-dihydrothieno[3,2-c]pyridin-3-yl)amino)-6-(cyclopropanecarboxamido)-N-(methyl-d3)nicotinamide], for which the GI50 is 124 nM.

As to `[2H]C([2H])([2H])NC(=O)c1cnc(NC(=O)C2CC2)cc1Nc1csc2c(Cl)cn(CC(F)(F)F)c(=O)c12` [Example 176, 4-((7-Chloro-4-oxo-5-(2,2,2-trifluoroethyl)-4,5-dihydrothieno[3,2-c]pyridin-3-yl)amino)-6-(cyclopropanecarboxamido)-N-(methyl-d3)nicotinamide], the GI50 was 183 nM.

For `[2H]C([2H])([2H])NC(=O)c1cnc(NC(=O)C2CC2)cc1Nc1csc2c(F)cn(C)c(=O)c12` [Example 177, 6-(Cyclopropanecarboxamido)-4-((7-fluoro-5-methyl-4-oxo-4,5-dihydrothieno[3,2-c]pyridin-3-yl)amino)-N-(methyl-d3)nicotinamide], the GI50 was determined as 91 nM.

`CCn1ncc2scc(Nc3cc(NC(=O)C4CC4)ncc3C(=O)OC)c2c1=O` [Example 178, Methyl 6-(cyclopropanecarboxamido)-4-((5-ethyl-4-oxo-4,5-dihydrothieno[2,3-d]pyridazin-3-yl)amino)nicotinate]: the GI50 amounted to 287 nM.

With `[2H]C([2H])([2H])NC(=O)c1cnc(NC(=O)C2CC2)cc1Nc1csc2cnn(CCOC)c(=O)c12` [Example 179, 6-(Cyclopropanecarboxamido)-4-((5-(2-methoxyethyl)-4-oxo-4,5-dihydrothieno[2,3-d]pyridazin-3-yl)amino)-N-(methyl-d3)nicotinamide], the GI50 is more than 5000 nM.

For the compound `[2H]C([2H])([2H])NC(=O)c1cnc(NC(=O)C2CC2)cc1Nc1csc2cnn(C(C)CC)c(=O)c12` (centres unmarked) [Example 180, 4-((5-(Sec-butyl)-4-oxo-4,5-dihydrothieno[2,3-d]pyridazin-3-yl)amino)-6-(cyclopropanecarboxamido)-N-(methyl-d3)nicotinamide], the GI50 worked out at 1350 nM.

`[2H]C([2H])([2H])NC(=O)c1cnc(NC(=O)C2CC2)cc1Nc1csc2cnn(CC(C)OC)c(=O)c12` (centres unmarked) [Example 181, 6-(Cyclopropanecarboxamido)-4-((5-(2-methoxypropyl)-4-oxo-4,5-dihydrothieno[2,3-d]pyridazin-3-yl)amino)-N-(methyl-d3)nicotinamide]: the GI50 is 1900 nM.

Regarding `[2H]C([2H])([2H])NC(=O)c1cnc(NC(=O)C2CC2)cc1Nc1csc2cnn(C(C)COC)c(=O)c12` (centres unmarked) [Example 182, 6-(Cyclopropanecarboxamido)-4-((5-(1-methoxypropan-2-yl)-4-oxo-4,5-dihydrothieno[2,3-d]pyridazin-3-yl)amino)-N-(methyl-d3)nicotinamide], the GI50 stood at 491 nM.

Consider `[2H]C([2H])([2H])NC(=O)c1cnc(NC(=O)C2CC2)cc1Nc1csc2cnn(CCOCC)c(=O)c12` [Example 183, 6-(Cyclopropanecarboxamido)-4-((5-(2-ethoxyethyl)-4-oxo-4,5-dihydrothieno[2,3-d]pyridazin-3-yl)amino)-N-(methyl-d3)nicotinamide], for which the GI50 came to 710 nM.

As for `COC(=O)c1cnc(NC(=O)C2CC2)cc1Nc1csc2c(C#N)cn(C)c(=O)c12` [Example 186, Methyl 4-((7-cyano-5-methyl-4-oxo-4,5-dihydrothieno[3,2-c]pyridin-3-yl)amino)-6-(cyclopropanecarboxamido)nicotinate], the GI50 came to 309 nM.

With `[2H]C([2H])([2H])NC(=O)c1cnc(NC(=O)C2CC2)cc1Nc1csc2c(C)nn(CC)c(=O)c12` [Example 187, 6-(Cyclopropanecarboxamido)-4-((5-ethyl-7-methyl-4-oxo-4,5-dihydrothieno[2,3-d]pyridazin-3-yl)amino)-N-(methyl-d3)nicotinamide], the GI50 was found to be 442 nM.

In the case of `CNC(=O)c1cnc(NC(=O)C2CC2)cc1Nc1csc2c(C)cn(C)c(=O)c12` [Example 188, 6-(Cyclopropanecarboxamido)-4-((5,7-dimethyl-4-oxo-4,5-dihydrothieno[3,2-c]pyridin-3-yl)amino)-N-methylnicotinamide], the GI50 amounted to 267 nM.

As to `[2H]C([2H])([2H])NC(=O)c1nnc(NC(=O)C2CC2)cc1Nc1csc2ccn(C)c(=O)c12` [Example 196, 6-(Cyclopropanecarboxamido)-N-(methyl-d3)-4-((5-methyl-4-oxo-4,5-dihydrothieno[3,2-c]pyridin-3-yl)amino)pyridazine-3-carboxamide], the GI50 came out at 45.7 nM.

Take `[2H]C([2H])([2H])NC(=O)c1cnc(NC(=O)C2CC2)cc1Nc1cn(C([2H])([2H])[2H])c2ccn(C(C)C(F)(F)F)c(=O)c12` (centres unmarked) [Example 199, 6-(Cyclopropanecarboxamido)-N-(methyl-d3)-4-((1-(methyl-d3)-4-oxo-5-(1,1,1-trifluoropropan-2-yl)-4,5-dihydro-1H-pyrrolo[3,2-c]pyridin-3-yl)amino)nicotinamide]: the GI50 amounted to 175 nM.

For `CCN1C(=O)C(F)(F)c2ccc(Nc3cc(NC(=O)C4CC4)ncc3C(=O)NC)c(OC)c21` [Example 204, 6-(Cyclopropanecarboxamido)-4-((1-ethyl-3,3-difluoro-7-methoxy-2-oxoindolin-6-yl)amino)-N-methylnicotinamide], the GI50 came to 327 nM.

For `[2H]C([2H])([2H])N1Cc2nc(NC(=O)C3CC3)cc(Nc3ccc4cnn(CC)c4c3OC)c2C1=O` [Example 210, N-(4-((1-ethyl-7-methoxy-1H-indazol-6-yl)amino)-6-(methyl-d3)-5-oxo-6,7-dihydro-5H-pyrrolo[3,4-b]pyridin-2-yl)cyclopropanecarboxamide], the GI50 is more than 5000 nM.

As to `[2H]C([2H])([2H])NC(=O)c1cnc(NC(=O)C2CC2)cc1Nc1ccn2ncc(C([2H])([2H])[2H])c2c1OC` [Example 220, 6-(Cyclopropanecarboxamido)-4-((4-methoxy-3-(methyl-d3)pyrazolo[1,5-a]pyridin-5-yl)amino)-N-(methyl-d3)nicotinamide], the GI50 was determined as 541 nM.

Consider `[2H]C([2H])([2H])NC(=O)c1cnc(NC(=O)C2CC2)cc1Nc1cn(CCOC2CC2)c2ccn(CC)c(=O)c12` [Example 221, 6-(Cyclopropanecarboxamido)-4-((1-(2-cyclopropoxyethyl)-5-ethyl-4-oxo-4,5-dihydro-1H-pyrrolo[3,2-c]pyridin-3-yl)amino)-N-(methyl-d3)nicotinamide], for which the GI50 stood at 294 nM.

With `[2H]C([2H])([2H])NC(=O)c1cnc(Nc2ccc(F)cn2)cc1Nc1ccn2ncc(C)c2c1OC` [Example 222, 6-((5-Fluoropyridin-2-yl)amino)-4-((4-methoxy-3-methylpyrazolo[1,5-a]pyridin-5-yl)amino)-N-(methyl-d3)nicotinamide], the GI50 stood at 155 nM.

Turning to `[2H]C([2H])([2H])NC(=O)c1cnc(NC(=O)C2CC2)cc1Nc1ccc2onc(CC)c2c1OC` [Example 233, 6-(Cyclopropanecarboxamido)-4-((3-ethyl-4-methoxybenzo[d]isoxazol-5-yl)amino)-N-(methyl-d3)nicotinamide], the GI50 was 3270 nM.

Consider `CCn1ncc2ccc(Nc3ccnc(NC(=O)C4CC4)c3)c(OC)c21` [Example 237, N-(4-((1-ethyl-7-methoxy-1H-indazol-6-yl)amino)pyridin-2-yl)cyclopropanecarboxamide], for which the GI50 was found to be 4070 nM.

For the compound `[2H]C([2H])([2H])NC(=O)c1cnc(NC(=O)C2(C(F)(F)F)CC2)cc1Nc1ccc2cnn(CC)c2c1OC` [Example 238, 4-((1-Ethyl-7-methoxy-1H-indazol-6-yl)amino)-N-(methyl-d3)-6-(1-(trifluoromethyl)cyclopropane-1-carboxamido)nicotinamide], the GI50 was more than 5000 nM.

Take `CCc1nc2c(Nc3cc(NC(=O)C4CC4)ncc3C(=O)NC)cn(C)c2c(=O)n1C` [Example 247, 6-(Cyclopropanecarboxamido)-4-((2-ethyl-3,5-dimethyl-4-oxo-4,5-dihydro-3H-pyrrolo[3,2-d]pyrimidin-7-yl)amino)-N-methylnicotinamide]: the GI50 was more than 5000 nM.

As for `CNC(=O)c1cnc(NC(=O)C2CC2)cc1Nc1ccc2nc3n(c2c1OC)CCC3` [Example 248, 6-(Cyclopropanecarboxamido)-4-((8-methoxy-2,3-dihydro-1H-benzo[d]pyrrolo[1,2-a]imidazol-7-yl)amino)-N-methylnicotinamide], the GI50 is 1420 nM.

The record behind these values is patent US20250115597A1, “TYK2 INHIBITORS AND COMPOSITIONS AND METHODS THEREOF” (LYNK PHARMACEUTICALS CO. LTD., priority 2021, published 2025).
